# Literature values in patent EP0086705A1, “Aqueous solution of ursodeoxycholic acid for therapeutic uses, process for its preparation and its utilization for the treatment of cholelithiasis” (S.A. PANMEDICA Société dite:, priority 1982, dated 1983).
# Conditions: 37"C
smiles,measurement,value
C[C@H](CCC(=O)O)[C@H]1CC[C@H]2[C@@H]3[C@H](O)C[C@@H]4C[C@H](O)CC[C@]4(C)[C@H]3CC[C@]12C [acide chénodésoxycholique],pH de précipitation de la solution,"7,0"
